What all share (details): PC-3
Assay [1] concerns the target Mitogen-activated protein kinase 14 (Homo sapiens) (UniProt Q16539). Nature of the assay: Inhibition of p38alpha in human PC3 cell lysates at 10 uM using desthiobiotin-tagged ATP probe AX9989 followed by trypsinization by LC/MS analysis.
The target in assay [2] is T1, Serine/threonine-protein kinase Nek9 (Homo sapiens) (UniProt Q8TD19).
T1 sequence (whole entry): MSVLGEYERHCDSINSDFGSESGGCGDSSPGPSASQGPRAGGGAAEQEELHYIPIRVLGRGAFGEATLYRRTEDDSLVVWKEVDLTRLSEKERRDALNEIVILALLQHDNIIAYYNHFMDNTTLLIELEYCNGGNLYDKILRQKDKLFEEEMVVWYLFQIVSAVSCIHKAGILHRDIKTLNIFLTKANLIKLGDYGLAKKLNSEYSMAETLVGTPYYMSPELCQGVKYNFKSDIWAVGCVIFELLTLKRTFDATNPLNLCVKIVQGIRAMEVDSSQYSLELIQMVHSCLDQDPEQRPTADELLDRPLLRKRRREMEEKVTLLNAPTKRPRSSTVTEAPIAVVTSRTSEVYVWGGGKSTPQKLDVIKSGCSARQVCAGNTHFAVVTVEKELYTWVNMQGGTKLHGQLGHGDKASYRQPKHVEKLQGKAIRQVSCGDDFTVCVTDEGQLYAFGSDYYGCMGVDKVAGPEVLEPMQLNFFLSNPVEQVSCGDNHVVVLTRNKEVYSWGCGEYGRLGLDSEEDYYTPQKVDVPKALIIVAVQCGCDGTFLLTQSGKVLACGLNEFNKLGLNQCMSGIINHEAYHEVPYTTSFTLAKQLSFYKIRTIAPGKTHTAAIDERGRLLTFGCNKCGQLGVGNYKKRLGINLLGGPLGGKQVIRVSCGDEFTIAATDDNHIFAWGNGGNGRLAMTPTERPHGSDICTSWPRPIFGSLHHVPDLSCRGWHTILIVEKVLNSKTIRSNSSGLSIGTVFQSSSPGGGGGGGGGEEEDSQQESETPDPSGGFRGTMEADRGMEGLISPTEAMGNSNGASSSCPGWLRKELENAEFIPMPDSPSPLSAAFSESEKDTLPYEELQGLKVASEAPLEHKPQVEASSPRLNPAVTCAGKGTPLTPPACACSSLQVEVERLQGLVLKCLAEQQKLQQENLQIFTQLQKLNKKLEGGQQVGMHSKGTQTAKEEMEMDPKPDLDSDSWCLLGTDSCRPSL
Kind of assay: Inhibition of NEK9 in human PC3 cell lysates at 10 uM using desthiobiotin-tagged ATP probe AX9989 followed by trypsinization by LC/MS analysis.

Assay [3] deals with T2, Scaffold protein ILK (Homo sapiens) (UniProt Q13418).
T2 sequence (whole entry): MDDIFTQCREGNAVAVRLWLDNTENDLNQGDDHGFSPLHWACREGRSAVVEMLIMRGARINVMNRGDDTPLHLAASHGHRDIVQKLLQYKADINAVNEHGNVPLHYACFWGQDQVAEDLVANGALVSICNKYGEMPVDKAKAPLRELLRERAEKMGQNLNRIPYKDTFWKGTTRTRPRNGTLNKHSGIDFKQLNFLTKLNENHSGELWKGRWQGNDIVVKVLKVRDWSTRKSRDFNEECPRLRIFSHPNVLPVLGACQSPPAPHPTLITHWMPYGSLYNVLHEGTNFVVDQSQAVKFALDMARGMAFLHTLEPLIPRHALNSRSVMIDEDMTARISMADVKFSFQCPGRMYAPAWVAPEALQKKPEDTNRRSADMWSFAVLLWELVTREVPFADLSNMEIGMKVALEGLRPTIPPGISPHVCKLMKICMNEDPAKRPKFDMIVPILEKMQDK
Nature of the assay: Inhibition of ILK in human PC3 cell lysates at 10 uM using desthiobiotin-tagged ATP probe AX9989 followed by trypsinization by LC/MS analysis.

Assay [4] concerns the target Tyrosine-protein kinase CSK (Homo sapiens) (UniProt P41240). Kind of assay: Inhibition of CSK in human PC3 cell lysates at 10 uM using desthiobiotin-tagged ATP probe AX9989 followed by trypsinization by LC/MS analysis.
The target of assay [5] is Cyclin-dependent kinase 9 (Homo sapiens) (UniProt P50750). Kind of assay: Inhibition of CDK9 in human PC3 cell lysates at 10 uM using desthiobiotin-tagged ATP probe AX9989 followed by trypsinization by LC/MS analysis.
The target in assay [6] is CaM kinase II (Homo sapiens) (UniProt Q13557+Q13555+Q13554+Q9UQM7). Nature of the assay: Inhibition of CaMK2alpha/CaMK2beta/CaMK2delta/CaMK2gamma in human PC3 cell lysates at 10 uM using desthiobiotin-tagged ATP probe AX9989 followed by trypsinization by LC/MS analysis. Format: protein assay.
Assay [7] addresses Serine/threonine-protein kinase Chk2 (Homo sapiens) (UniProt O96017). Kind of assay: Inhibition of CHK2 in human PC3 cell lysates at 10 uM using desthiobiotin-tagged ATP probe AX9989 followed by trypsinization by LC/MS analysis.
The target in assay [8] is Protein kinase C alpha type (Homo sapiens) (UniProt P17252). Nature of the assay: Inhibition of PKCalpha in human PC3 cell lysates at 10 uM using desthiobiotin-tagged ATP probe AX9989 followed by trypsinization by LC/MS analysis.
The target in assay [9] is T3, Phosphatidylinositol 5-phosphate 4-kinase type-2 gamma (Homo sapiens) (UniProt Q8TBX8).
T3 sequence (whole entry): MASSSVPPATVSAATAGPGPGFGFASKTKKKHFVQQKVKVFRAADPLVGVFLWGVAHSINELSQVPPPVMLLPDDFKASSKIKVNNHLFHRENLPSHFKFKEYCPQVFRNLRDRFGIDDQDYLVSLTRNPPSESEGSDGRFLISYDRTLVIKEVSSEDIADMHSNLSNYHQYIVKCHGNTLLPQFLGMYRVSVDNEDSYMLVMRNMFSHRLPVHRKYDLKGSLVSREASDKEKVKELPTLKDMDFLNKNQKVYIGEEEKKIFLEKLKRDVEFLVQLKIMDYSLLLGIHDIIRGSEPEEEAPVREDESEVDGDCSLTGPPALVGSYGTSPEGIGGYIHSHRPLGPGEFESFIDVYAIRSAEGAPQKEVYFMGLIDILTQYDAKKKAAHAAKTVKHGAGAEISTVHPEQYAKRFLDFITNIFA
Kind of assay: Inhibition of PIP4K2C in human PC3 cell lysates at 10 uM using desthiobiotin-tagged ATP probe AX9989 followed by trypsinization by LC/MS analysis.

Assay [10] concerns the target Tyrosine-protein kinase Fer (Homo sapiens) (UniProt P16591). Nature of the assay: Inhibition of FER in human PC3 cell lysates at 10 uM using desthiobiotin-tagged ATP probe AX9989 followed by trypsinization by LC/MS analysis.
Assay [11] deals with Microtubule-associated serine/threonine-protein kinase 3 (Homo sapiens, UniProt O60307). Kind of assay: Inhibition of MAST3 in human PC3 cell lysates at 10 uM using desthiobiotin-tagged ATP probe AX9989 followed by trypsinization by LC/MS analysis.
Chain of Microtubule-associated serine/threonine-protein kinase 3 (O60307 whole entry): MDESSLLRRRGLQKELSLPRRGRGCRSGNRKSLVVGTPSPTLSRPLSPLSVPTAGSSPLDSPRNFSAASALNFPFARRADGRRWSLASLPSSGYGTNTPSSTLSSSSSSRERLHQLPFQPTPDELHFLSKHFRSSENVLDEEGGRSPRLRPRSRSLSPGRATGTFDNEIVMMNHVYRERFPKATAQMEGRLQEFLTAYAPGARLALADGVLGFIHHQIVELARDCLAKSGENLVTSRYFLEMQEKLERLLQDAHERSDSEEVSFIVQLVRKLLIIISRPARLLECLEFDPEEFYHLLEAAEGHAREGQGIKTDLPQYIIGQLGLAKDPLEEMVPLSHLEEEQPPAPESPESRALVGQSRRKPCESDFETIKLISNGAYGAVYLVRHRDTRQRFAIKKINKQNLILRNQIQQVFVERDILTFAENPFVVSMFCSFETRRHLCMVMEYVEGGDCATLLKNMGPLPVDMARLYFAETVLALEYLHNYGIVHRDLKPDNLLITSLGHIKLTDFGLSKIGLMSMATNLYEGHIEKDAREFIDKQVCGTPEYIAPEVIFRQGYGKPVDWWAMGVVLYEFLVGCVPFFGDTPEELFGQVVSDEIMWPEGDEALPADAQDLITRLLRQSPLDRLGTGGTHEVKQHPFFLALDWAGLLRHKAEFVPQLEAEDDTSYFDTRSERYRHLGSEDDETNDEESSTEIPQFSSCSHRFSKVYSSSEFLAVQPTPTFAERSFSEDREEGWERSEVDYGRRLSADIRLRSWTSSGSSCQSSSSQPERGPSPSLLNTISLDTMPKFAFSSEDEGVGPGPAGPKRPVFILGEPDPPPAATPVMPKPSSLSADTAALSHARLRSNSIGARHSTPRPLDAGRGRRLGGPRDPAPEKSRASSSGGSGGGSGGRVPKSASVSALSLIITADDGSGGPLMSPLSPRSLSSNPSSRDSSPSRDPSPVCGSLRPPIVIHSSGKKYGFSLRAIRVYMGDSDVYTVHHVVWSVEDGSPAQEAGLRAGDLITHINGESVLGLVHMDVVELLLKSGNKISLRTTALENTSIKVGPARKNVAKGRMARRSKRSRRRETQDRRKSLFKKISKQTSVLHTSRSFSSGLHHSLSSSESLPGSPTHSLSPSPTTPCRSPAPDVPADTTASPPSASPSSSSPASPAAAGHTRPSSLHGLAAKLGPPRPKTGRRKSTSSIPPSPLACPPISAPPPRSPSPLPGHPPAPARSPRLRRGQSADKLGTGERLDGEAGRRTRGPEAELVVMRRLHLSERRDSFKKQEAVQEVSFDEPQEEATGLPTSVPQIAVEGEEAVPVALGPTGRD

Chain of Tyrosine-protein kinase CSK (Homo sapiens) (P41240 2-450 limits assumed): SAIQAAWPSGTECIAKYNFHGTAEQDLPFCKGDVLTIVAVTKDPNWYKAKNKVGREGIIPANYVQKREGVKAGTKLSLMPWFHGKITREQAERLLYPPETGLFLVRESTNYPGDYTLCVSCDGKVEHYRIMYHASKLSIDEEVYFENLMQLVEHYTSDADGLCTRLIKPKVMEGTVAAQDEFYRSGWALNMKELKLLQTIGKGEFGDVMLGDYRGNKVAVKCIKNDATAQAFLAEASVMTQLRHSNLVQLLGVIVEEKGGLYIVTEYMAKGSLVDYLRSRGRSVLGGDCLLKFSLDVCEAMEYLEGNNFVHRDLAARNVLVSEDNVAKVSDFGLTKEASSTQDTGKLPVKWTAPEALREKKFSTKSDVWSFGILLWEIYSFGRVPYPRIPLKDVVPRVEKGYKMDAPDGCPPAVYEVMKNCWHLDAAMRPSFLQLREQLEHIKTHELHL
Chain of Serine/threonine-protein kinase Chk2 (Homo sapiens) (O96017 whole entry): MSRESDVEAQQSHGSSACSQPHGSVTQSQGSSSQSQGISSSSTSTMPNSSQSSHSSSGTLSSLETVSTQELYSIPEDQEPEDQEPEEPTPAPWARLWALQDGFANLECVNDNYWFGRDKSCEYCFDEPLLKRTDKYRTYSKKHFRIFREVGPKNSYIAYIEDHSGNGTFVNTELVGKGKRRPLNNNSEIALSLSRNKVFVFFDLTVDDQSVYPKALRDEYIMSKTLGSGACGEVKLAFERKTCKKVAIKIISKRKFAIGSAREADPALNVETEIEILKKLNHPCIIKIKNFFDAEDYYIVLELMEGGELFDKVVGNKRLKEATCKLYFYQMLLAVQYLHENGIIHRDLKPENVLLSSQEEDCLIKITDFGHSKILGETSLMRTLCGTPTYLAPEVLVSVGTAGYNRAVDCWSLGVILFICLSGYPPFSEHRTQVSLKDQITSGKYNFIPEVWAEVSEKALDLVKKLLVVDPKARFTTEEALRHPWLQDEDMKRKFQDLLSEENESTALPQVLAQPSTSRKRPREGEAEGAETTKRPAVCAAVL
Chain of Mitogen-activated protein kinase 14 (Homo sapiens) (Q16539 whole entry): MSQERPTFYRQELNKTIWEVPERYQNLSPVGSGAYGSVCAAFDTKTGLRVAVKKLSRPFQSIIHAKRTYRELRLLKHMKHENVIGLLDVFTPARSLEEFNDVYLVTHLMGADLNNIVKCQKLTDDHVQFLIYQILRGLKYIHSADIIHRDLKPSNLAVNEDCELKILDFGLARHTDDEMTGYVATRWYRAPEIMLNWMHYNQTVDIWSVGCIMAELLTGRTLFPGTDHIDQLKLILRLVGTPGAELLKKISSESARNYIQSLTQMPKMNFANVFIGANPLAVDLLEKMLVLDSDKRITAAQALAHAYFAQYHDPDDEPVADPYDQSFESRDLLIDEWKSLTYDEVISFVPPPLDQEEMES
Chain of Tyrosine-protein kinase Fer (Homo sapiens) (P16591 whole entry, looked up): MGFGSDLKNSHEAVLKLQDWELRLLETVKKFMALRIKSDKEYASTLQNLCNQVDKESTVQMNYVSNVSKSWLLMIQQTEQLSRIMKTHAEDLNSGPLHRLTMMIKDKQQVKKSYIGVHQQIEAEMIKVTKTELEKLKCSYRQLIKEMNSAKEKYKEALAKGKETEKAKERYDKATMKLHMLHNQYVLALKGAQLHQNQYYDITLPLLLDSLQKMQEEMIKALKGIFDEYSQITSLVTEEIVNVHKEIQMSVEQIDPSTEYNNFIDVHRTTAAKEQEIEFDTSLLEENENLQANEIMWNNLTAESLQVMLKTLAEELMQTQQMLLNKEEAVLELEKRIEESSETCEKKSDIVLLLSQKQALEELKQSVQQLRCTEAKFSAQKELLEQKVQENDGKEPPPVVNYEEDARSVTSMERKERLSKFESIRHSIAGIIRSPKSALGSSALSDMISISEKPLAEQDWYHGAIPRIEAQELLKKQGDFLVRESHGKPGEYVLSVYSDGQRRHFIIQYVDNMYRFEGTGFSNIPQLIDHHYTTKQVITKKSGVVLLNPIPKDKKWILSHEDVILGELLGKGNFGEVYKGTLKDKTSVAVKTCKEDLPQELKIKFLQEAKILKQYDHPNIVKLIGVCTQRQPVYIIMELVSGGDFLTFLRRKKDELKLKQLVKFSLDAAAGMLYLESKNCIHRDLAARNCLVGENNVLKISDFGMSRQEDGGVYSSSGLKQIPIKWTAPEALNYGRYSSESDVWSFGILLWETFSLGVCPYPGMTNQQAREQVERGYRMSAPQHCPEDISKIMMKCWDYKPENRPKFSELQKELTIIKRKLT
Chain of Cyclin-dependent kinase 9 (Homo sapiens) (P50750 whole entry): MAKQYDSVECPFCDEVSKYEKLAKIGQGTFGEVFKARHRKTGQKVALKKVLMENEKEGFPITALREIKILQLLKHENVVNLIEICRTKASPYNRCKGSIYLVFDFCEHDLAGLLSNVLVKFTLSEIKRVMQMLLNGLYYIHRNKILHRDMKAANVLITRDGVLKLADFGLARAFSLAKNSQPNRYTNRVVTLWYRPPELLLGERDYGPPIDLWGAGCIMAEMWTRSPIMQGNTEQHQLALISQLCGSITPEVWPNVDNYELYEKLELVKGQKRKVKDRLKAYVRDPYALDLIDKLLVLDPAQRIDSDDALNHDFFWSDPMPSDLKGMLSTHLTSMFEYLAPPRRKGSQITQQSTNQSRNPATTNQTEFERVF

On to `CC[C@@H](NC(=O)c1ccc2nc(N[C@H]3CC[C@H](O)CC3)c3nccn3c2c1)c1ccccc1`, for which the inhibition in [1] was less than 35%; in assay [2], less than 35%; in assay [3], less than 35%; in assay [4] it was less than 35%; in [5], less than 35%; in assay [6], 46.9%. In addition, the inhibition in assay [7] was less than 35%; in assay [8] it was less than 35%; in [9], less than 35%; in assay [10], less than 35%; in [11], 96.2%.
Turning to `O=C(N[C@H](CO)c1ccccc1)c1ccc2nc(N[C@H]3CC[C@H](O)CC3)c3nccn3c2c1`, the inhibition in assay [1], in assay [2], in assay [3], in [4], in assay [5] and in assay [6] was less than 35% each time. For the same compound, the inhibition in assay [7] is less than 35%; in [8], less than 35%; in assay [9], 44.5%; in assay [10] it was less than 35%; in assay [11] it was 97.9%.
As for `O=C(NC1(c2ccccc2)CCC1)c1ccc2nc(N[C@H]3CC[C@H](O)CC3)c3nccn3c2c1`, the inhibition in assay [1] is less than 35%; in assay [2] it was less than 35%; in [3] it was less than 35%; in [4], less than 35%; in assay [5], 49.8%; in assay [6], less than 35%. In addition, the inhibition in [7] is less than 35%; in [8], less than 35%; in assay [9], less than 35%; in [10], less than 35%; in assay [11], 99.2%.
For the compound `CCC[C@@H](NC(=O)c1ccc2nc(N[C@H]3CC[C@H](O)CC3)c3nccn3c2c1)c1ccccc1`, the inhibition in assay [1], in assay [2], in assay [3], in [4], in [5] and in assay [6] was less than 35% each time. The inhibition in assay [7] is less than 35%; in assay [8], less than 35%; in assay [9], less than 35%; in assay [10], less than 35%; in assay [11] it was 90.2%.
As for `CC(C)(NC(=O)c1ccc2nc(N[C@H]3CC[C@H](O)CC3)c3nccn3c2c1)c1ccccc1`, the inhibition in [1], in [2], in [3], in assay [4], in assay [5] and in [6] was less than 35% each time. Further, the inhibition in assay [7] was less than 35%; in assay [8] it was less than 35%; in [9] it was less than 35%; in [10], less than 35%; in assay [11], 99.3%.
With `O=C(O)c1ccc2nc(N[C@H]3CC[C@H](O)CC3)c3nccn3c2c1`, the inhibition in assay [1] was less than 35%; in [2], less than 35%; in assay [3], less than 35%; in assay [4] it was less than 35%; in assay [5], 97.9%; in assay [6] it was less than 35%. For the same compound, the inhibition in assay [7] is less than 35%; in assay [8], less than 35%; in assay [9], 90.1%; in [10], less than 35%; in [11], less than 35%.
Turning to `O=C(NC1(c2ccccc2)CC1)c1ccc2nc(N[C@H]3CC[C@H](O)CC3)c3nccn3c2c1`, the inhibition in assay [1], in assay [2], in [3], in assay [4], in [5] and in [6] was less than 35% in each case. The inhibition is less than 35% in [7]; less than 35% in assay [8]; less than 35% in assay [9]; less than 35% in assay [10]; 98.9% in assay [11].
Turning to `NC(=O)c1ccc2nc(N[C@H]3CC[C@H](O)CC3)c3nccn3c2c1`, the inhibition in assay [1] was less than 35%; in assay [2], less than 35%; in [3] it was less than 35%; in [4], less than 35%; in assay [5], 98.6%; in [6] it was less than 35%. Besides, the inhibition in assay [7] is less than 35%; in assay [8] it was less than 35%; in [9], 78.1%; in [10] it was less than 35%; in [11] it was less than 35%.
With `C[C@@H](NC(=O)c1ccc2nc(N[C@H]3CC[C@H](O)CC3)c3nccn3c2c1)c1ccccc1`, the inhibition in [1] is less than 35%; in [2], less than 35%; in assay [3] it was less than 35%; in assay [4] it was less than 35%; in [5], 42%; in assay [6], less than 35%. The inhibition was less than 35% in assay [7]; less than 35% in [8]; 51% in [9]; less than 35% in assay [10]; 97% in assay [11].
As for `C[C@H](NC(=O)c1ccc2nc(N[C@H]3CC[C@H](O)CC3)c3nccn3c2c1)c1ccccc1`, the inhibition in assay [1], in assay [2], in assay [3], in assay [4], in assay [5] and in assay [6] was less than 35% throughout. In addition, the inhibition in assay [7] is less than 35%; in assay [8], less than 35%; in [9], less than 35%; in [10], less than 35%; in assay [11] it was 76.3%.

One may read the inhibition as the relative decrease from the control value, in per cent.

Source of the values: ChEMBL document CHEMBL2417377, “Hit-to-lead optimization and kinase selectivity of imidazo[1,2-a]quinoxalin-4-amine derived JNK1 inhibitors” (Bioorg Med Chem Lett, 2013).
